Source: patent US4278612A, “2-Chloro-2-alkyl substituted peroxyesters” (priority 1979, dated 1981)

Experiment: Half-life data for 2-chloro-2-alkyl substituted peroxyesters (0.2M in Benzene)
Format: physicochemical
Details: for Half-Life: 200000 µM
Source text: The following Table III illustrates the desirable half lifes obtainable with compositions of this invention:
HALF-LIFE DATA FOR SELECTED 2-CHLORO-2-ALKYL
SUBSTITUTED PEROXYESTERS (0.2M in Benzene)

## CCCCC(Cl)(CC)C(=O)OOC(C)(C)C (stereo not drawn) [TBPCEH, t-Butyl peroxy 2-chloro-2-ethyl hexanoate]
  10 Hr Half-Life Temp: 56.2 °C
55 °C.
  Half-Life: 11.55 h
65 °C.
  Half-Life: 3.72 h
75 °C.
  Half-Life: 1.16 h
80 °C.
  Half-Life: 0.68 h

## CCC(Cl)(CC)C(=O)OOC(C)(C)CC(C)(C)C [TMBPCEB, 1,1,3,3 Tetramethylbutylperoxy-2-chloro-2-ethylbutyrate]
47.5 °C.
  Half-Life: 23.22 h
50 °C.
  Half-Life: 16.84 h
55 °C.
  Half-Life: 9.00 h
65 °C.
  Half-Life: 2.38 h
